For ten molecules, IC50 results are on record in patent US20130109721A1, “FAAH Inhibitors” (Ironwood Pharmaceuticals, Inc., priority 2009, published 2013).

The structures appear in SMILES notation.

For this test, the target named is T1, FAAH (Rattus norvegicus, UniProt P97612).
T1 construct: For assay of FAAH activity in rat brain membrane (RBM) homogenates; tissue Charles River; host or cells: rat (CD strain) brain membrane homogenate
T1 sequence (P97612 1-579): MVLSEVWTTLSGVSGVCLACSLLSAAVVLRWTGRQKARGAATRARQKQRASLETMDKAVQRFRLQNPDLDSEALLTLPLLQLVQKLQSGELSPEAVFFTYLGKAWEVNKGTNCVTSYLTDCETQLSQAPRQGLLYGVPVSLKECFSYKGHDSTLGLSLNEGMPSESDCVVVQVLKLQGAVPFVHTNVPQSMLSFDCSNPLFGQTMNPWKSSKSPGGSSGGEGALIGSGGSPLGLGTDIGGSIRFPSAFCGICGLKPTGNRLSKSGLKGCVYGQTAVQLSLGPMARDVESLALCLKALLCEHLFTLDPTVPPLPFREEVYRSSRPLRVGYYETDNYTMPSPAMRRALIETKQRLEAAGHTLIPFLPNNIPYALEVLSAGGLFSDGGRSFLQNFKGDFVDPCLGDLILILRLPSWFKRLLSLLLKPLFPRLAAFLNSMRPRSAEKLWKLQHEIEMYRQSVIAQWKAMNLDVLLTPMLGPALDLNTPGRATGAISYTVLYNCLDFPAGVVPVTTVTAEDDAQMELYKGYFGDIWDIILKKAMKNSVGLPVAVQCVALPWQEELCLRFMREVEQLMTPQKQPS
The experiment in a line: FAAH inhibition, rat brain membrane homogenate assay. The class given is biochemical. The settings on record: average; FAAH extracted from rat brain homogenate; read-out: Rat Brian Extract IC50. The method, then: Adult rats (Charles River CD strain, female, 200 g) were anaesthetized with isofluorane and rapidly decapitated. Each brain was quickly removed and chilled in tubes (3 brains per tube) on ice. About 25 mL of “homogenization buffer” (20 mM HEPES buffer, pH 7.0, with 1 mM MgCl2) was added to 15 to 20 g of brain. The brains were homogenized on ice for 1 minute using an Omni GLH homogenizer (Omni International, Marietta, Ga.). The homogenates were then transferred to three centrifuge tubes and centrifuged at 36,500 g for 20 minutes at 4° C. The supernatant was discarded and each pellet was re-suspended in 25 mL homogenization buffer. The re-suspended material was again centrifuged (36,500 g, 20 minutes at 4° C.). Pellets were combined by resuspension in 10 mL of homogenization buffer and incubated in a 37° C. water bath for 15 minutes. The tubes were then placed on ice for 5 minutes followed by centrifugation at 36,500 g for 20 minutes at 4° C. The supernatant was discarded and the membrane pellets were then re-suspended in 40 mL of “resuspension buffer” (50 mM Tris-HCl buffer, pH 7.4, containing 1 mM EDTA and 3 mM MgCl2). A Bradford Protein assay was performed to determine protein concentration. The protein was aliquotted into screw cap Cryo tubes each containing ˜400 μL, flash frozen in liquid nitrogen and stored at −80° C. until used for the assay. A similar protocol was used to obtain brain membrane homogenates from mice.
FAAH activity was assayed in the respective homogenates described herein (Rat brain, Mouse brain or Human brain) for certain exemplary substrate compounds using a modification of the method of Omeir et al. (1995 Life Sci 56:1999) and Fowler et al. (1997 J. Pharmacol Exp Ther 283:729). For assay of FAAH activity in rat brain membrane (RBM) homogenates, RBM homogenates (7 μg protein in 20 μL final volume of 10 mM Tris pH 6.5) were mixed with 180 μL of a mixture of the following: 2.0 μM unlabelled anandamide, 0.03 μCi radio labeled anandamide [ethanolamine 1-^3H] (40-60 Cis/mmol, product number ART-626, American Radiolabeled Chemicals, St. Louis, Mo.), 1 mg/mL Bovine Serum Albumin (fatty acid-free BSA, electrophoresis grade, Sigma, St. Louis, Mo.), 10 mM Tris-HCl (pH 6.5), and 1 mM EDTA in the presence and absence of test compounds (vehicle was DMSO at a final concentration of 1%) and incubated for 10 minutes at 37° C. Samples were placed on ice to terminate the reactions.
^3H-ethanolamine product and un-reacted ^3H-anandamide substrate were then separated either: (1) by using chloroform/methanol extraction or (2) by passing the reaction mixture through a glass fiber filter containing activated charcoal. Samples were extracted with chloroform/methanol by adding 0.4 mL of chloroform/methanol (1:1 v/v), vigorously mixing the samples, and separating the aqueous and organic phases by centrifugation. Radioactivity (corresponding to FAAH-catalyzed breakdown of ^3H-anandamide) found in aliquots (0.2 mL) of the aqueous phase was determined by liquid scintillation counting with quench correction. IC50 values were determined as described by Jonsson et al. (2001 Br. J. Pharmacol. 133:1263). Alternatively, reactions were purified using a modification of the solid-phase extraction method described by Wilson et al (2003 Anal. Biochem. 318:270). This method was modified as follows: after reactions were incubated at 37° C. for 10 minutes and chilled on ice, the reaction mixtures were acidified by adding 10 μL of sodium phosphate solution [0.5M (pH 2.0)]. Next, 90 μL aliquots of the acidified reaction mixtures were applied to activated charcoal (that had been previously washed with methanol as described by Wilson et al. (supra)) containing 80 μL of water on top of a glass fiber filter, centrifuged, and the radioactivity in the eluate was counted as described previously by Wilson et al. (supra). […]

Turning to `Cc1c(C(=O)C(=O)Nc2cccc(Cl)c2)c2c(n1Cc1ccc(Cl)cc1)CCCC2` [Compound I-16, 2-(1-(4-chlorobenzyl)-2-methyl-4,5,6,7-tetrahydro-1H-indol-3-yl)-N-(3-chlorophenyl)-2-oxoacetamide], the IC50 is 4 nM.

As to `COc1cc(NC(=O)C(=O)c2c3c(n(Cc4ccc(Cl)cc4)c2C)CCCC3)ccn1` [Compound I-18, 2-(1-(4-chlorobenzyl)-2-methyl-4,5,6,7-tetrahydro-1H-indol-3-yl)-N-(2-methoxypyridin-4-yl)-2-oxoacetamide], the IC50 is 1440 nM.

On to `COc1cc(NC(=O)C(=O)c2c(-c3ccccc3)c(C)n(Cc3ccc(Cl)cc3)c2C)ccn1` [Compound I-19, 2-(1-(4-chlorobenzyl)-2,5-dimethyl-4-phenyl-1H-pyrrol-3-yl)-N-(2-methoxypyridin-4-yl)-2-oxoacetamide], for which the IC50 stood at 5 nM.

For the molecule `Cc1c(C(=O)C(=O)Nc2cccc(Cl)c2)c(-c2ccccc2)c(C)n1Cc1ccc(Cl)cc1` [Compound I-20, 2-(1-(4-chlorobenzyl)-2,5-dimethyl-4-phenyl-1H-pyrrol-3-yl)-N-(3-chlorophenyl)-2-oxoacetamide], the IC50 worked out at 1040 nM.

As for `COc1cc(NC(=O)C(=O)c2cc(C)n(Cc3ccc(Cl)cc3Cl)c2C)ccn1` [Compound I-21, 2-(1-(2,4-dichlorobenzyl)-2,5-dimethyl-1H-pyrrol-3-yl)-N-(2-methoxypyridin-4-yl)-2-oxoacetamide], the IC50 was 1 nM.

Consider `COc1ccc(Cn2c(C)cc(C(=O)C(=O)Nc3ccnc(OC)c3)c2C)cc1` [Compound I-22, 2-(1-(4-methoxybenzyl)-2,5-dimethyl-1H-pyrrol-3-yl)-N-(2-methoxypyridin-4-yl)-2-oxoacetamide], for which the IC50 was 1770 nM.

As for `COc1cc(NC(=O)C(=O)c2cc(C)n(Cc3ccc(Cl)cc3)c2-c2ccccc2)ccn1` [Compound I-23, 2-(1-(4-chlorobenzyl)-5-methyl-2-phenyl-1H-pyrrol-3-yl)-N-(2-methoxypyridin-4-yl)-2-oxoacetamide], the half-inhibitory concentration (IC50) worked out at 185 nM.

`Cc1cc(C(=O)C(=O)Nc2cccc(Cl)c2)c(-c2ccccc2)n1Cc1ccc(Cl)cc1` [Compound I-24, 2-(1-(4-chlorobenzyl)-5-methyl-2-phenyl-1H-pyrrol-3-yl)-N-(3-chlorophenyl)-2-oxoacetamide]: the IC50 is greater than 5000 nM.

For the molecule `Cc1c(C(=O)C(=O)Nc2cccc(Cl)c2)cc(-c2ccccc2)n1Cc1ccc(Cl)cc1` [Compound I-25, 2-(1-(4-chlorobenzyl)-2-methyl-5-phenyl-1H-pyrrol-3-yl)-N-(3-chlorophenyl)-2-oxoacetamide], the IC50 is 28 nM.

In the case of `Cc1c(C(=O)C(=O)Nc2ccncc2)cc(-c2ccccc2)n1Cc1ccc(Cl)cc1` [Compound I-26, 2-(1-(4-chlorobenzyl)-2-methyl-5-phenyl-1H-pyrrol-3-yl)-2-oxo-N-(pyridin-4-yl)acetamide], the IC50 is greater than 5000 nM.
